# Measured values reported in article PMC10193894 (Journal of Enzyme Inhibition and Medicinal Chemistry, 2023).
# Entries after “also recorded” stand apart in the source; their conditions may differ. Read-outs that look alike come from different tables or passages of the source. Ends that are not written are not given here.
# Tests used:
# [1] = molecular target: SARS-CoV-2 S-RBD (Severe acute respiratory syndrome coronavirus 2, UniProt P0DTC2); experiment: biochemical; type: binding
# [2] = molecular target: T1, NRP1-BD (the b1 domain of NRP1) (Homo sapiens, UniProt O14786); experiment: Microscale thermophoresis (MST) binding to NRP1-BD; conditions: mean ± SD (n = 3)
# T1 construct: NRP1-BD (the b1 domain of NRP1); purchased Abcam (Cambridge, MA, USA)
# T1 sequence (O14786 275-424 limits assumed): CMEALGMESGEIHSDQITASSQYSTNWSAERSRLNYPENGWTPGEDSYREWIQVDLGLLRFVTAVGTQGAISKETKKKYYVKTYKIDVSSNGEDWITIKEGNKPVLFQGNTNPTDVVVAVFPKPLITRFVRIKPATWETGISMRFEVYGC
# [3] = test system: SARS-CoV-2 pseudovirus; conditions: for inhibition rate on pseudotyped SARS-CoV-2 infection: 3.2 µM
# [4] = read-out: EC50 against pseudotyped SARS-CoV-2 infection
Molecule,Kd [1],"EC50 ([3]; pseudovirus, 48 h)",other results
NC(N)=NCCC[C@H](NC(=O)c1sccc1NS(=O)(=O)c1cccc2nsnc12)C(=O)O [EG00229],,,"S-RBD Kd [1]: no binding; also recorded: without binding; Kd ([2]; value in μM): 4.9 ± 0.7 µM; inhibition rate on pseudotyped SARS-CoV-2 infection [3]: 15%; EC50 [3, 4]: > 20 µM"
"C[C@@]1(C(=O)O)CC[C@]2(C)CC[C@]3(C)C4=CC(=O)c5c(cc(O)c(O)c5C=O)[C@]4(C)CC[C@@]3(C)[C@@H]2C1 [T-96, demethylzeylasteral]",,,"Kd ([1]; read-out: S-RBD Kd): 0.9986 ± 0.0084 µM; NRP1-BD Kd [2]: no binding; also recorded: without binding; inhibition rate on pseudotyped SARS-CoV-2 infection [3]: about 40%; EC50 [3, 4]: 5.42 µM"
Ac-EARTFLDKYNHEAEDLYYQSSLASWGSPRRAR [RN-4],0.0074 ± 0.0005 µM,0.39 ± 0.09 µM,
Ac-EKSTLKDRFNHEAQDLKYQDSLASYRGKRPPR [RN-2],0.0653 ± 0.0022 µM,2.37 ± 0.42 µM,
Ac-ETQVLLDKLNHEAEDLKYQSALASHRVRRPPR [RN-5],0.207 ± 0.0045 µM,3.72 ± 0.89 µM,
Ac-QNKVYIDKYNHEAQDLFYQSALKAHRGNRRAR [RN-1],0.0199 ± 0.0014 µM,1.98 ± 0.37 µM,
Ac-QRNIYLDRHNHEAEDLKYQTALASFRPAKPAR [RN-3],0.0953 ± 0.0029 µM,2.87 ± 0.18 µM,
